The values that follow come from ChEMBL document CHEMBL3875185, “Structure-anticonvulsant activity studies in the group of (E)-N-cinnamoyl aminoalkanols derivatives monosubstituted in phenyl ring with 4-Cl, 4-CH3 or 2-CH3” (Bioorg Med Chem, 2017).

SMILES strings stand for the structures. The source made the active and inactive calls. No cut-off for these calls is given here.

The test system of data set [1] is Mus musculus. Kind of data set: Anticonvulsant activity in maximal electroshock induced seizure mouse model assessed as suppression in hindlimb tonic extension at 100 mg/kg, ip measured at 0.5 hrs post dose. The format is functional, organism-based. (In general: Protection in the maximal electroshock model is a classic sign of anticonvulsant action.)
For data set [2], the system named is Rattus norvegicus. Kind of data set: Neurotoxicity in Sprague-Dawley rat assessed as behavioral change at 30 mg/kg, ip measured at 1 hr post dose. Type of data set: toxicity, organism-based. The following applies: in vivo.
Data set [3] relates to Rattus norvegicus. Kind of data set: Anticonvulsant activity in po dosed pentylenetetrazole induced seizure Sprague-Dawley rat model assessed as no observable episode of clonic convulsion of at least 5 secs by measuring time to peak effect. Type of data set: functional.
The test system of data set [4] is Mus musculus. Briefly: Neurotoxicity in po dosed mouse assessed as induction of motor impairment by measuring time to peak effect by rotarod method. The format is toxicity, organism-based. As to conditions: in vivo.
Data set [5] can be described thus: Protection index, ratio of TD50 for neurotoxicity in po dosed Sprague-Dawley rat model to ED50 for po dosed pentylenetetrazole induced seizure Sprague-Dawley rat model. As to conditions: in vivo, read-out: Ratio TD50/ED50. Type of data set: toxicity, organism-based.
Data set [6] has as its target 5-hydroxytryptamine receptor 3A (Homo sapiens) (UniProt P46098). Briefly: Displacement of [3H]BRL 43694 from human recombinant 5HT3 receptor expressed in CHO cells at 100 uM measured after 120 mins by scintillation counting method relative to control. The format is cell-based. (Displacement assays read how much labelled ligand stays bound in the presence of the test substance.)

Data set [7] has as its target Galanin receptor type 2 (Homo sapiens) (UniProt O43603). Briefly: Displacement of [125I]galanin from human recombinant GAL2 receptor expressed in CHO cells at 100 uM measured after 120 mins by scintillation counting method relative to control. Type of data set: cell-based.
Data set [8] deals with Rattus norvegicus. Kind of data set: Neurotoxicity in po dosed Sprague-Dawley rat assessed as behavioral change by measuring time to peak effect. Type of data set: toxicity, organism-based. The following applies: in vivo.
In data set [9] the test system is Rattus norvegicus. Kind of data set: Anticonvulsant activity in maximal electroshock induced seizure Sprague-Dawley rat model assessed as suppression in hindlimb tonic extension at 30 mg/kg, ip measured at […] post dose. The format is functional, organism-based.
Data set [10] concerns Mus musculus. Kind of data set: Anticonvulsant activity in 6-Hz induced seizure mouse model assessed as restoration of normal activity within 10 secs from stimulation at 100 mg/kg, ip at 44 mA measured at […] post dose. The format is functional, organism-based.
Data set [11] relates to Mus musculus. Briefly: Neurotoxicity in mouse assessed as induction of motor impairment at 100 mg/kg, ip measured at 0.5 hrs post dose by rotarod method. Type of data set: toxicity, organism-based. The following applies: in vivo. (In general: In the rotarod test animals must keep their balance on a rotating rod.)
Data set [12] has as its target Muscarinic acetylcholine receptor M2 (Homo sapiens) (UniProt P08172). Briefly: Displacement of [3H]AF-DX384 from human recombinant M2 receptor expressed in CHO cells at 100 uM measured after 60 mins by scintillation counting method relative to control. The format is cell-based.
The target in data set [13] is Neuropeptide Y receptor type 1 (Homo sapiens) (UniProt P25929). Kind of data set: Displacement of [125I]peptide YY from Y1 in human SK-N-MC cells receptor at 100 uM measured after 120 mins by scintillation counting method relative to control. The format is cell-based.
In data set [14] the target is Gastrin/cholecystokinin type B receptor (Homo sapiens) (UniProt P32239). Kind of data set: Displacement of [125I]CCK-8s from human recombinant CCK2 receptor expressed in CHO cells at 100 uM measured after 60 mins by scintillation counting method relative to control. The format is cell-based.
The test system of data set [15] is Mus musculus. Kind of data set: Anticonvulsant activity in pentylenetetrazole induced seizure mouse model assessed as no observable episode of clonic convulsion of at least 5 secs at 300 mg/kg, ip measured at 4 hrs post dose. The format is functional, organism-based.
Data set [16] deals with Muscarinic acetylcholine receptor M1 (Homo sapiens) (UniProt P11229). Briefly: Displacement of [3H]pirenzepine from human recombinant M1 receptor expressed in CHO cells at 100 uM measured after 60 mins by scintillation counting method relative to control. Type of data set: cell-based.
For data set [17], the system named is Rattus norvegicus. Kind of data set: Anticonvulsant activity in maximal electroshock induced seizure Sprague-Dawley rat model assessed as suppression in hindlimb tonic extension at 30 mg/kg, po measured at 0.5 hrs post dose. The format is functional, organism-based.
Data set [18] deals with Histamine H1 receptor (Homo sapiens) (UniProt P35367). Kind of data set: Displacement of [3H]pyrilamine from human recombinant H1 receptor expressed in HEK293 cells at 100 uM measured after 60 mins by scintillation counting method relative to control. Type of data set: cell-based.
Sequence of Histamine H1 receptor (Homo sapiens) (P35367 whole entry): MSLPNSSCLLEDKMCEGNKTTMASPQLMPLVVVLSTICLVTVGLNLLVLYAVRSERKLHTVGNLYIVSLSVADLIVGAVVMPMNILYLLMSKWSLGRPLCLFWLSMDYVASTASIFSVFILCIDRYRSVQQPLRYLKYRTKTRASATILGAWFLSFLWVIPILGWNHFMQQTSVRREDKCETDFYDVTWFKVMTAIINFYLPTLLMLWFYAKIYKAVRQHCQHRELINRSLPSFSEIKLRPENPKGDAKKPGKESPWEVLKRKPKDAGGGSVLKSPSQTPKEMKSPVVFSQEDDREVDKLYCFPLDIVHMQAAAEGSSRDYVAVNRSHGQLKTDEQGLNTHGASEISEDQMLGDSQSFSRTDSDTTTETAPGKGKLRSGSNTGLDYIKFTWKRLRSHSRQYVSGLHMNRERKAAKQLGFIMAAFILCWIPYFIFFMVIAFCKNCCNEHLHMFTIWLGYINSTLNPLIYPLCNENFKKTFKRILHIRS

Sequence of Muscarinic acetylcholine receptor M1 (Homo sapiens) (P11229 whole entry): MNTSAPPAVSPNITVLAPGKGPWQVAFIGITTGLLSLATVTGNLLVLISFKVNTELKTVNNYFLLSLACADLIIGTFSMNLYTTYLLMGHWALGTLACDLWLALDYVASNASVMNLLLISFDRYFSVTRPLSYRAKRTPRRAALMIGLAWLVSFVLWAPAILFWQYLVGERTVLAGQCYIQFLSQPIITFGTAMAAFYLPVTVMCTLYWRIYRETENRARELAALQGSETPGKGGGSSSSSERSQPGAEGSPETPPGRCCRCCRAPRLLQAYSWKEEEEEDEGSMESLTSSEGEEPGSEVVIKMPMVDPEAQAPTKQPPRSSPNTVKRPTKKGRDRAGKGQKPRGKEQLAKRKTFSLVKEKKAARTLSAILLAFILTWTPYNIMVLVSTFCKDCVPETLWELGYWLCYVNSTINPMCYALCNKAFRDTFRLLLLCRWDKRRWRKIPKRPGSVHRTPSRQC
Sequence of 5-hydroxytryptamine receptor 3A (Homo sapiens) (P46098 whole entry): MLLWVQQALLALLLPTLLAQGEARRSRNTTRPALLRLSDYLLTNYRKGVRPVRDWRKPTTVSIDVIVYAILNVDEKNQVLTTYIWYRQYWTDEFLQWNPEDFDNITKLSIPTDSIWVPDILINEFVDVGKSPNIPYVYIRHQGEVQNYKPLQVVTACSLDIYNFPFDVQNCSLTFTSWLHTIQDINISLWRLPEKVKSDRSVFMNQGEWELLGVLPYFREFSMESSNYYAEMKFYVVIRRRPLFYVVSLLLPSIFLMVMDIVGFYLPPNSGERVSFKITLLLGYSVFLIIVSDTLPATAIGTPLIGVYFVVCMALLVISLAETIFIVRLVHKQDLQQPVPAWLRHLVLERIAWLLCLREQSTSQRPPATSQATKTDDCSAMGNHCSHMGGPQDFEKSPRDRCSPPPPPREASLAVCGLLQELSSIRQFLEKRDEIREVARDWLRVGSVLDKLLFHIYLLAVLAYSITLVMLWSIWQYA
Sequence of Gastrin/cholecystokinin type B receptor (Homo sapiens) (P32239 whole entry): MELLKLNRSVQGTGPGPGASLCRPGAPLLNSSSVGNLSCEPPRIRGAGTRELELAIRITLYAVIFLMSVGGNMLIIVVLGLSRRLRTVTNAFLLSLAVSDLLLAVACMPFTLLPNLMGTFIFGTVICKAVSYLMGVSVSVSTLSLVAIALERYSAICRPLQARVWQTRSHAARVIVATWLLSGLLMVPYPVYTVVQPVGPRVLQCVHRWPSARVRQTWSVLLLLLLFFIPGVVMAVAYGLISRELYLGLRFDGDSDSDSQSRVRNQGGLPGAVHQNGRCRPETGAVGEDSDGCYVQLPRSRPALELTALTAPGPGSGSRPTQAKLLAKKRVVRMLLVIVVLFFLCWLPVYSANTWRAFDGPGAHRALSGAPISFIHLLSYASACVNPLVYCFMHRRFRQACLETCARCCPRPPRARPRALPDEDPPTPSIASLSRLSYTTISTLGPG
Sequence of Neuropeptide Y receptor type 1 (Homo sapiens) (P25929 whole entry): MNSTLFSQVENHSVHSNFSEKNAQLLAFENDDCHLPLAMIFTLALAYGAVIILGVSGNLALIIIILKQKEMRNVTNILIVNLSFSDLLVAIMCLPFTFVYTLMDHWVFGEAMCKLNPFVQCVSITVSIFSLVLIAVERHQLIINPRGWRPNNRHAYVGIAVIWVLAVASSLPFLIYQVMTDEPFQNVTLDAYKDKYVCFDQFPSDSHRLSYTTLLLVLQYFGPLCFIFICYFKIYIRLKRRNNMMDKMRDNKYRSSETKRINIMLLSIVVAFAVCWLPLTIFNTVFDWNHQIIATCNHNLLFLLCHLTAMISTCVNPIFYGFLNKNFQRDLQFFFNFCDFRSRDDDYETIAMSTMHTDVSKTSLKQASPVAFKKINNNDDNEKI
Sequence of Muscarinic acetylcholine receptor M2 (Homo sapiens) (P08172 whole entry): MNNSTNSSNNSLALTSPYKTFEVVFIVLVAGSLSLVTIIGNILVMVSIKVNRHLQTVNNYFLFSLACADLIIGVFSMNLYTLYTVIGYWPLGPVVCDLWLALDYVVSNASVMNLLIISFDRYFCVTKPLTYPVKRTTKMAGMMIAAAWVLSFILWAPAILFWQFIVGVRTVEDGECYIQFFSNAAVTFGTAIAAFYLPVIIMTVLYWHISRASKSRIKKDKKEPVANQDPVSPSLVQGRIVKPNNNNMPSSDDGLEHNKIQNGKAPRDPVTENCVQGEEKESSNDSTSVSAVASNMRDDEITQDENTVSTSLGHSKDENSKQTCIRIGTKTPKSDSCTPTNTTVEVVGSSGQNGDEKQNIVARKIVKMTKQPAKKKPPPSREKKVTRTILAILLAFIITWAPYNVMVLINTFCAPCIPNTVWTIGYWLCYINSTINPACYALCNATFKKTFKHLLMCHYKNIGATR
Sequence of Galanin receptor type 2 (Homo sapiens) (O43603 whole entry): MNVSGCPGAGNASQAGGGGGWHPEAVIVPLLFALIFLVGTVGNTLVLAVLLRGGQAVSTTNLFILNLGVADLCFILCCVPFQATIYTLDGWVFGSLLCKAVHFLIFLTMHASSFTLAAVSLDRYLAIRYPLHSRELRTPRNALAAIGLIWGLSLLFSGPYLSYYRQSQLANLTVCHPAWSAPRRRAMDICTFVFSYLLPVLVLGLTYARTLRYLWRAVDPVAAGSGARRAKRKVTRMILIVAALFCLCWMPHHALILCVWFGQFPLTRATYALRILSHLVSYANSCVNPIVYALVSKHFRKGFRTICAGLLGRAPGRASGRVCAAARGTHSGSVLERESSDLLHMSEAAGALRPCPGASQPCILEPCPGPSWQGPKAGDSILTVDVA

Consider `Cc1ccccc1/C=C/C(=O)N[C@@H](C)CO`, for which, in the data set on Mus musculus [1], the result was Active. Moreover, the Activity result in the data set with Rattus norvegicus [2] is reported as “Non-Toxic”. Also, the Time with Rattus norvegicus [3] came out at 1 h; with Mus musculus [4], 0.25 h. In addition, the selectivity ratio in data set [5] is > 7.18.
`CCC(CO)NC(=O)/C=C/c1ccc(Cl)cc1` (stereo not drawn): the values for the inhibition in [6] and in data set [7] were -1.6% and -7.3%, respectively. Also, in the data set on Rattus norvegicus [8], the Time was 4 h. Besides, the outcome in the data set on Rattus norvegicus [9] and with Mus musculus [10] was Active. In addition, the Activity result with Mus musculus [11] is “Non-Toxic”.
Regarding `CC(O)CNC(=O)/C=C/c1ccc(Cl)cc1` (stereo not drawn), the inhibition was -2.8% in [12]; -5.8% in data set [13]; -9.8% in data set [14]; -9.8% in data set [16]; -10% in [18]. The result with Mus musculus [15] and in the data set with Rattus norvegicus [17] was Active.

Broadly, the inhibition is the drop in the measured response relative to a control, in per cent.
